Test results published in US7718688B2, “Nitrobenzindoles and their use in cancer therapy” (Auckland Uniservices Limited, priority 2004, dated 2010).

Legend:
[1] = One-electron reduction potential E(1) by pulse radiolysis; format: physicochemical; conditions: determined by pulse radiolysis
[2] = tested on: SKOV3: human ovarian carcinoma cell line; assay: Proliferation IC50 assay, oxic/hypoxic, SKOV3; format: cell-based; conditions: for IC50: 4 h exposure under aerobic conditions; for HCR (hypoxic cytotoxicity ratio) SKOV3: IC50(aerobic)/IC10(hypoxic); for HCR SKOV3: IC50(aerobic)/IC50(hypoxic)
[3] = tested on: HT29: human colon cancer cell line; assay: Proliferation IC50 assay, oxic/hypoxic, HT29; format: cell-based; conditions: for IC50: 4 h exposure under aerobic conditions; for HCR (hypoxic cytotoxicity ratio) HT29: IC50(aerobic)/IC10(hypoxic); for HCR HT29: IC50(aerobic)/IC50(hypoxic)

| Structure (SMILES) | E(1): one-electron reduction potential [1] [mV] | IC50 ([2]; Homo sapiens, SK-OV-3, Table 3) [nM] | HCR (hypoxic cytotoxicity ratio) SKOV3 ([2]; Table 3) | IC50 ([3]; Homo sapiens, HT-29, Table 3) [nM] | HCR (hypoxic cytotoxicity ratio) HT29 ([3]; Table 3) | melting point | IC50 ([2]; Homo sapiens, SK-OV-3, Table 4) [nM] | HCR SKOV3 ([2]; Table 4) | IC50 ([3]; Homo sapiens, HT-29, Table 4) [nM] | HCR HT29 ([3]; Table 4) | IC50 ([2]; Table 3) [nM] | IC50 ([3]; Table 3) [nM] |
| --- | --- | --- | --- | --- | --- | --- | --- | --- | --- | --- | --- | --- |
| CN(C)CCOc1ccc2[nH]c(C(=O)N3CC(CCl)c4c3cc([N+](=O)[O-])c3c([N+](=O)[O-])cccc43)cc2c1 (stereo not drawn) [Compound 2, 1-(Chloromethyl)-3-(5-[2-(dimethylamino)ethoxy]indol-2-carbonyl)-5,6-dinitro-1,2-dihydro-3H-benzo[e]indole] | −467 ± 8 | 4100 | 2.9 | 2800 | 2.2 | – | – | – | – | – | – | – |
| COC(=O)c1ccc2c3c(cc([N+](=O)[O-])c2c1)N(C(=O)c1cc2cc(OCCN(C)C)ccc2[nH]1)CC3CCl (stereo not drawn) [Compound 14, Methyl 1-(chloromethyl)-3-{5-[2-(dimethylamino)ethoxy]indol-2-carbonyl}-5-nitro-1,2-dihydro-3H-benzo[e]indole-7-carboxylate] | −429 ± 8 | 440 | 1.9 | 320 | 1.2 | – | – | – | – | – | – | – |
| CN(C)CCOc1ccc2[nH]c(C(=O)N3CC(CCl)c4c3cc([N+](=O)[O-])c3ccc(S(C)(=O)=O)cc43)cc2c1 (stereo not drawn) [Compound 47, 1-(Chloromethyl)-3-{5-[2-(dimethylamino)ethoxy]indol-2-carbonyl}-8-(methylsulfonyl)-5-nitro-1,2-dihydro-3H-benzo[e]indole] | −420 ± 8 | 1900 | 2.7 | 980 | 1.2 | – | – | – | – | – | – | – |
| COc1cc2cc(C(=O)N3CC(CCl)c4c3cc([N+](=O)[O-])c3ccc(S(C)(=O)=O)cc43)[nH]c2c(OC)c1OC (stereo not drawn) [Compound 46, 1-(Chloromethyl)-8-(methylsulfonyl)-5-nitro-3-(5,6,7-trimethoxyindol-2-carbonyl)-1,2-dihydro-3H-benzo[e]indole] | – | 11000 | 4.2 | 14000 | 2.5 | 265 °C | – | – | – | – | – | – |
| COc1cc2cc(C(=O)N3CC(CCl)c4c3cc([N+](=O)[O-])c3cc(C(=O)NCCN(C)C)ccc43)[nH]c2c(OC)c1OC (stereo not drawn) [Compound 20, 1-(Chloromethyl)-N-[2-(dimethylamino)ethyl]-5-nitro-3-(5,6,7-trimethoxyindol-2-carbonyl)-1,2-dihydro-3H-benzo[e]indole-7-carboxamide] | −427 ± 12 | 2000 | 24 | 1500 | 5.9 | – | – | – | – | – | – | – |
| COc1ccc(/C=C/C(=O)N2CC(CCl)c3c2cc([N+](=O)[O-])c2cc(S(N)(=O)=O)ccc32)cc1O (stereo not drawn) [Compound 27, 1-(Chloromethyl)-3-[(2E)-3-(3-hydroxy-4-methoxyphenyl)-2-propenoyl]-5-nitro-1,2-dihydro-3H-benzo[e]indole-7-sulfonamide] | – | 13000 | 31 | 2400 | 1.8 | 220 to 225 °C | – | – | – | – | – | – |
| CN(C)CCOc1ccc2[nH]c(C(=O)N3CC(CCl)c4c3cc(N)c3cc(S(C)(=O)=O)ccc43)cc2c1 (stereo not drawn) [Compound 58, 5-Amino-1-(chloromethyl)-3-{5-[2-(dimethylamino)ethoxy]indol-2-carbonyl}-7-(methylsulfonyl)-1,2-dihydro-3H-benzo[e]indole] | – | – | – | – | – | 280 to 285 °C | 14 | 1.7 | 11 | 1.6 | – | – |
| CN(C)CCOc1ccc2[nH]c(C(=O)N3CC(CCl)c4c3cc(N)c3ccc(S(C)(=O)=O)cc43)cc2c1 (stereo not drawn) [Compound 64, 5-Amino-1-(chloromethyl)-3-{5-[2-(dimethylamino)ethoxy]indol-2-carbonyl}-8-(methylsulfonyl)-1,2-dihydro-3H-benzo[e]indole] | – | – | – | – | – | 235 to 240 °C | 18 | 1.5 | 29 | 1.9 | – | – |
| CN(C)CCOc1ccc2[nH]c(C(=O)N3CC(CCl)c4c3cc([N+](=O)[O-])c3cc(S(C)(=O)=O)ccc43)cc2c1 (stereo not drawn) [Compound 24, 1-(Chloromethyl)-3-{5-[2-(dimethylamino)ethoxy]indol-2-carbonyl}-7-(methylsulfonyl)-5-nitro-1,2-dihydro-3H-benzo[e]indole] | −362 ± 8 | 1300 | 11 | 970 | 4.0 | – | – | – | – | – | – | – |
| COc1cc2cc(C(=O)N3CC(CCl)c4c3cc(N)c3cc(S(C)(=O)=O)ccc43)[nH]c2c(OC)c1OC (stereo not drawn) [Compound 57, 5-Amino-1-(chloromethyl)-7-(methylsulfonyl)-3-(5,6,7-trimethoxyindol-2-carbonyl)-1,2-dihydro-3H-benzo[e]indole] | – | – | – | – | – | 266 to 268 °C | 32 | 1.2 | 32 | 0.86 | – | – |
| COc1ccc(/C=C/C(=O)N2CC(CCl)c3c2cc([N+](=O)[O-])c2cc(C(=O)NCCO)ccc32)cc1 (stereo not drawn) [Compound 18, 1-(Chloromethyl)-N-(2-hydroxyethyl)-3-[(E)-4-methoxycinnamoyl]-5-nitro-1,2-dihydro-3H-benzo[e]indole7-carboxamide] | – | 4800 | 4.7 | 4400 | 4.4 | 240 to 241 °C | – | – | – | – | – | – |
| COC(=O)c1ccc2c3c(cc(N)c2c1)N(C(=O)c1cc2cc(OCCN(C)C)ccc2[nH]1)CC3CCl (stereo not drawn) [Compound 54, Methyl 5-amino-1-(chloromethyl)-3-{5-[2-(dimethylamino)ethoxy]indol-2-carbonyl}-1,2-dihydro-3H-benzo[e]indole-7-carboxylate] | – | – | – | – | – | 225 to 230 °C | 7.7 | 0.91 | 8.6 | 1.7 | – | – |
| COc1cc2cc(C(=O)N3CC(CCl)c4c3cc([N+](=O)[O-])c3c(C(C)=O)cccc43)[nH]c2c(OC)c1OC (stereo not drawn) [Compound 3, 6-Acetyl-1-(chloromethyl)-5-nitro-3-(5,6,7-trimethoxyindol-2-carbonyl)-1,2-dihydro-3H-benzo[e]indole] | – | 500 | 3.4 | 680 | 2.0 | 180 to 183 °C | – | – | – | – | – | – |
| CN(C)CCOc1ccc2[nH]c(C(=O)N3CC(CCl)c4c3cc([N+](=O)[O-])c3cc(N)ccc43)cc2c1 (stereo not drawn) [Compound 10, 7-Amino-1-(chloromethyl)-3-{5-[2-(dimethylamino)ethoxy]indol-2-carbonyl}-5-nitro-1,2-dihydro-3H-benzo[e]indole] | – | 2500 | 2.0 | 1800 | 2.4 | > 300 °C | – | – | – | – | – | – |
| CN(C)CCOc1ccc2[nH]c(C(=O)N3CC(CCl)c4c3cc([N+](=O)[O-])c3ccc(C#N)cc43)cc2c1 (stereo not drawn) [Compound 45] | −419 ± 8 | – | 1.5 | – | 1.4 | – | – | – | – | – | 1200 | 1400 |
| COc1cc2cc(C(=O)N3CC(CCl)c4c3cc([N+](=O)[O-])c3cc(C(N)=O)ccc43)[nH]c2c(OC)c1OC (stereo not drawn) [Compound 15, 1-(Chloromethyl)-5-nitro-3-[5,6,7-trimethoxyindol-2-carbonyl]-1,2-dihydro-3H-benzo[e]indole-7-carboxamide] | – | 5800 | 6.1 | 7900 | 2.8 | 287 to 289 °C | – | – | – | – | – | – |
| CC(=O)c1ccc2c3c(cc(N)c2c1)N(C(=O)c1cc2cc(OCCN(C)C)ccc2[nH]1)CC3CCl (stereo not drawn) [Compound 53, 7-Acetyl-5-amino-1-(chloromethyl)-3-{5-[2-(dimethylamino)ethoxy]indol-2-carbonyl}-1,2-dihydro-3H-benzo[e]indole] | – | – | – | – | – | 220 to 224 °C (dec.) | 11 | 1.4 | 7.6 | 1.5 | – | – |
| CC(=O)c1ccc2c([N+](=O)[O-])cc3c(c2c1)C(CCl)CN3C(=O)c1cc2cc(OCCN(C)C)ccc2[nH]1 (stereo not drawn) [Compound 41, 8-Acetyl-1-(chloromethyl)-3-{5-[2-(dimethylamino)ethoxy]indol-2-carbonyl}-5-nitro-1,2-dihydro-3H-benzo[e]indole] | – | 200 | 1.3 | 150 | 1.1 | 210 to 215 °C | – | – | – | – | – | – |
